According to patent US20190106460A1, “BINDING INHIBITORS OF THE BETA. TRANSDUCIN REPEAT-CONTAINING PROTEIN” (priority 2011, published 2019):
Starred links: 1 amine or outer side, 2 acyl side, 3 side chain; linkers in the order of their positions; H or OH if unused. Non-standard residues stand in square brackets, D forms with d. Residues, ends and D or L forms follow the SMILES beside them. *: point of attachment. Phe(4-NO2) = N[C@@H](Cc1ccc([N+](=O)[O-])cc1)C(=O)O; Phe(3-F) = N[C@@H](Cc1cccc(F)c1)C(=O)O; Suc = O=C(CCC(=O)[*:2])[*:1]; Ethoxycarbonyl = CCOC(=O)*

Experiments:
[1] = molecular target: T1, βTrCP (Homo sapiens, UniProt Q9Y297); assay: Biotin pull down assay with biotinylated IκB peptide; assay type: binding; conditions: for Biotin Pulldown Assay 10 μM: 10 μM compound; for Biotin Pulldown Assay 100 μM: 100 μM compound
T1 sequence (Q9Y297 1-605): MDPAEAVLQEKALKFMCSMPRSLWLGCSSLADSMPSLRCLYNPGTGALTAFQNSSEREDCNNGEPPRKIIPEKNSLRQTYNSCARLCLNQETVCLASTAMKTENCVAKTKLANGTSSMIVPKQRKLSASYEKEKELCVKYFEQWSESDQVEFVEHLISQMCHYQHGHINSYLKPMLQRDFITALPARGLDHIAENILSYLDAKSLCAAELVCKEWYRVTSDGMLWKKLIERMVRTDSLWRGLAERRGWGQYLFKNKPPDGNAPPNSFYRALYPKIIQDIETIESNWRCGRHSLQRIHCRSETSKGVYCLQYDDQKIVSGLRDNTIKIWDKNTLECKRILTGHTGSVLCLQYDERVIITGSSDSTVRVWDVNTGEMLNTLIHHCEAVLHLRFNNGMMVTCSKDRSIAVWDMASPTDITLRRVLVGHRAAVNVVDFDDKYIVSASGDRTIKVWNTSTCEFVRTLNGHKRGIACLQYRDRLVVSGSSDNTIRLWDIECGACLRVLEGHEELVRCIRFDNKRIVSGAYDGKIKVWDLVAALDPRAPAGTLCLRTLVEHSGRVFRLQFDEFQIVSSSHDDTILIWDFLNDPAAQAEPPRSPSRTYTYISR

[2] = molecular target: FBW7/Skp1 (Homo sapiens, UniProt Q969H0); assay: Selectivity assay vs other E3s: Fbw7; assay type: biochemical; conditions: for inhibition at 100 µM: value in brackets, read-out: % Inhibition Fbw7 @ (100 μM); for inhibition at 10 µM: read-out: % Inhibition Fbw7 @ 10 μM
FBW7/Skp1, sequence (Q969H0 whole entry, species assumed): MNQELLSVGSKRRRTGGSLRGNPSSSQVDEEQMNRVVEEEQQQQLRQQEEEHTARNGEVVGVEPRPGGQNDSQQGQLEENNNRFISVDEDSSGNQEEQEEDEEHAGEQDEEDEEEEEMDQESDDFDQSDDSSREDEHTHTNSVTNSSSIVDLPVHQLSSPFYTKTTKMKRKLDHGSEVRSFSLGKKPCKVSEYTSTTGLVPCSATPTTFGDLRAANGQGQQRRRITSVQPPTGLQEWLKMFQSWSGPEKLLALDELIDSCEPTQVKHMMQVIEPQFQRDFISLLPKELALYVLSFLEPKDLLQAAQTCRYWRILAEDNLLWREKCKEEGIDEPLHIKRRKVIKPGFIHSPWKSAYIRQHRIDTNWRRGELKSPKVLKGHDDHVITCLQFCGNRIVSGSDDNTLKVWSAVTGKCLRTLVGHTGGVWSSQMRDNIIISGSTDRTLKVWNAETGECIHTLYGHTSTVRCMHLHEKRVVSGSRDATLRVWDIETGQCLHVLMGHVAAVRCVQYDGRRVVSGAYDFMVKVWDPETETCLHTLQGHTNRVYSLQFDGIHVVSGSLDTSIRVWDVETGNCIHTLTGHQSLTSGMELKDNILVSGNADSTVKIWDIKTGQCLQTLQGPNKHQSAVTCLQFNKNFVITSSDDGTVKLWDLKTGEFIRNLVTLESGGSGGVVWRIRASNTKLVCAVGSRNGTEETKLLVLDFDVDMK
FBW7/Skp1, sequence (P63208 whole entry partner, species assumed): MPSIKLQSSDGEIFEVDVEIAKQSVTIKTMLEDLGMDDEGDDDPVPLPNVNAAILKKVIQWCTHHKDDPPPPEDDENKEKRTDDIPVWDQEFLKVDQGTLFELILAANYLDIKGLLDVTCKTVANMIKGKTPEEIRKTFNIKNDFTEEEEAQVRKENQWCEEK
FBW7/Skp1, sequence (Q13616 whole entry partner, species assumed): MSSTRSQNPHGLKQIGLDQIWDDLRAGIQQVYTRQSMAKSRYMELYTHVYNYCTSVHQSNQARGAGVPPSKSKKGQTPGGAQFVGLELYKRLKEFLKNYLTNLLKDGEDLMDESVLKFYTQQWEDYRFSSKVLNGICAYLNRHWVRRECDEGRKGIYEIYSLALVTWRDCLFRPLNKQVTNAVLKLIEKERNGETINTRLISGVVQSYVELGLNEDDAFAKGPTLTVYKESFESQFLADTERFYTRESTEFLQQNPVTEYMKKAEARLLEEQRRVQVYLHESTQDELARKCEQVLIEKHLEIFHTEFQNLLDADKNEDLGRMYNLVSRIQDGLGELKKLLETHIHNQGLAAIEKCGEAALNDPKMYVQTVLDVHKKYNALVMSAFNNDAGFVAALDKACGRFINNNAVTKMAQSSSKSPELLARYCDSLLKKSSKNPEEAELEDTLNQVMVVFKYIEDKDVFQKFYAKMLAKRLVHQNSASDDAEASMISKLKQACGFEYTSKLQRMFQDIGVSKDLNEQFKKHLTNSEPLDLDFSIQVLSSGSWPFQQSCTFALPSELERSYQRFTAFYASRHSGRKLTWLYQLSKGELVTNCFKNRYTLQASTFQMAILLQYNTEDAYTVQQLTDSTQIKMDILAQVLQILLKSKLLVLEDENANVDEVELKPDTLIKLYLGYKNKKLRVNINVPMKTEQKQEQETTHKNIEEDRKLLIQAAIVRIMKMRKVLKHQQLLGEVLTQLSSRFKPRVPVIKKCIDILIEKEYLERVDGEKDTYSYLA
FBW7/Skp1, sequence (P62877 whole entry partner, species assumed): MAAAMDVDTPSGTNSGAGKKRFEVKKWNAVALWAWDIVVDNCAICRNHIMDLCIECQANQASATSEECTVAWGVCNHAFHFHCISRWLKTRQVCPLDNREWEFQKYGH
Procedure: (§1) βTrCP Ubiquitination Assay and Selectivity Assays
(§2) Master mixes were prepared in a 50 mM Herpes buffer at pH 7.5, in 75 mM NaCl and 1 mM DTT without Mg or ATP and peptides were added to a final concentration of 100 μM. Reactions were incubated at room temperature for 30 minutes and then Mg/ATP was added to the mix. Reactions were further incubated for an additional 60 minutes and then stopped by adding SDS gel loading buffer and boiled for 5 minutes. Reactions were run on SDS-PAGE (10%) and transferred to nitrocellulose membranes and probed with HRP-Streptavidin.
FBW7 selectivity assays were performed in the same manner except using FBW7/Skp1 as E3 component and cyclin E as the substrate. Blots were probed using anti-cyclin E antibody.
(§3) Candidate compounds were tested for inhibition of Fbw7 and Skp2 as described above.

[3] = molecular target: β-TrCP1/Skp1 (Homo sapiens, UniProt Q9Y297); assay: βTrCP ubiquitination assay (Ub assay); assay type: biochemical; conditions: for Ub Assay 10 μM: 10 μM compound; for Ub Assay 100 μM: 100 μM compound
β-TrCP1/Skp1, sequence (P63208 2-163 partner limits assumed, one chain of several): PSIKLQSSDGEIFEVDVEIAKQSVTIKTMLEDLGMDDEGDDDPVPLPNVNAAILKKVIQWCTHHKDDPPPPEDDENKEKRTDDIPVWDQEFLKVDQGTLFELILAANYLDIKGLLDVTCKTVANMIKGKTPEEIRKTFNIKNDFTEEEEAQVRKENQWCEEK
Procedure: as §1
0.5 μM Peptide substrate (biotin)
as §2
Candidate compounds were tested in duplicate at both 10 and 100 μM against the E3 ligase cascades βTrCP(IκBα) and βTrCP(β-catenin). The E3 assays were carried out according to the component concentrations detailed in Table 9. In each case the E2 was HA,6His-UbcH3-(hu,FL), the E1 was 6His-UBE1-(hu,FL) and the ubiquitin (Sigma U6253) was biotinylated at a 5:1 ratio. Substrate phosphorylation was performed in the absence of compound; consequently any observed signal modulation should not reflect inhibition of the up-stream kinase reaction. All other steps (E1, E2 and substrate ubiquitination) were carried out in the presence of compound. The stopped reaction mix (10 μl) was added to an ECL plate loaded with anti c-Myc ( 1/500 Dilution, Millipore 05-724) and blocked with 5% BSA. Binding was allowed to proceed for 1 hour at RT before a wash step (3 40 μl PBST washes). Detection was achieved by binding SA-Ru TAG at 1 μg/ml (1 hour @ RT, 3 40 μl PBST washes) before reading on an MSD Sector Imager 6000.
Assays were performed as described above

[4] = molecular target: Skp2 (Homo sapiens, UniProt Q13309); assay: Selectivity assay vs other E3s: Skp2; assay type: biochemical; conditions: for inhibition at 100 µM: value in brackets, read-out: % Inhibition Skp2 @ (100 μM); for inhibition at 10 µM: read-out: % Inhibition Skp2 @ 10 μM
Skp2, sequence (Q13309 whole entry, species assumed): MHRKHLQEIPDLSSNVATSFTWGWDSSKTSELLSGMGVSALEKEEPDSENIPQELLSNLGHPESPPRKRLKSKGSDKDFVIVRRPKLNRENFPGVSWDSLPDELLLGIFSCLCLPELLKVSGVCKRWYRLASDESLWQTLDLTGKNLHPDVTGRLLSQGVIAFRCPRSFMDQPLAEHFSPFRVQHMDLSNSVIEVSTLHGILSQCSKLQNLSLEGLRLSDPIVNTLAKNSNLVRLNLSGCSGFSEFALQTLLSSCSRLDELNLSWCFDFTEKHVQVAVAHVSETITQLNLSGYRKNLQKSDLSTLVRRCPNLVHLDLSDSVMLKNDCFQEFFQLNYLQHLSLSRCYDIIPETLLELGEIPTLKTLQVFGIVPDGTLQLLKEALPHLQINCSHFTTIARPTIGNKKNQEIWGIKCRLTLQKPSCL
Skp2, sequence (P63208 whole entry partner, species assumed): as the sequence (P63208 whole entry partner, species assumed) above
Skp2, sequence (Q13616 whole entry partner, species assumed): as the sequence (Q13616 whole entry partner, species assumed) above
Skp2, sequence (P62877 whole entry partner, species assumed): as the sequence (P62877 whole entry partner, species assumed) above
Procedure: as §1, §2, §3

[5] = molecular target: βTrCP (Homo sapiens, UniProt Q9Y297); assay: Fluorescence polarisation (FP) binding assay with fluorescein-tagged IκB peptide; conditions: Table 11, with spread; read-out: FP IC50/μM
Target sequence in this assay (P63208 whole entry partner, one chain of several): as the sequence (P63208 whole entry partner, species assumed) above

[6] = molecular target: βTrCP/Skp1 (Homo sapiens, UniProt Q9Y297); assay: Surface plasmon resonance (SPR), Biacore T200; assay type: binding; conditions: apparent KD averaged over both surfaces
βTrCP/Skp1, sequence (P63208 whole entry partner, one chain of several): as the sequence (P63208 whole entry partner, species assumed) above
Procedure: Surface Plasmon Resonance (SPR)
Experiments were carried out using the Biacore T200 SPR detection system. This system exploits the phenomenon of surface plasmon resonance (SPR) to monitor interactions between molecules. The system involves the attachment of one interacting partner to a surface (an appropriate sensor chip) while the other interacting partner is passed over it in solution. The binding of molecules to the surface generates an SPR response (measured in response units (RU)) that is proportional to the mass and amount of the biomolecule (in this case βTrCP/Skp1) bound to the chip. The relative responses obtained are dependent on the concentration of the molecule binding. At RUmaximum, the attached protein's binding sites are saturated. Binding events can be followed in real time and a range of interaction characteristics can be determined including kinetics, specificity of interactions and the concentration of specific molecules in a sample.
As βTrCP was His tagged, an NTA sensor chip was used. This sensor chip has a dextran surface matrix with immobilized nitrilotriacetic acid (NTA) which provides a means of capturing polyHis-tagged proteins through Nickel chelation. It was hoped that addition of Ni^+ would orient the protein in a specific (and hopefully active) manner as it is covalently immobilised via amine coupling. Addition of EDC:NHS (N-ethyl-N′-(3-[…])-carbodiimide:N-hydroxysuccinimide) converts carboxyl groups on the dextran sensor chip surface to succinamide esters which readily form covalent bonds with primary amines. Each chip contains four flow cells (each a separate surface) which means that compounds/peptides can be passed over different forms of βTrCP and a reference surface simultaneously. If binding to βTrCP is occurring, responses should be the same (accounting for differences in density of surface etc) on each surface.
Two different βTrCP protein complexes were immobilised on to an NTA biacore sensor chip. One included the GSTSkp1 fusion (HisβTrCP/GSTSkp1) while the other was immobilised after GST Removal by Thrombin (HisβTrCP/Skp1). To ensure that the GST moiety is completely removed from Skp1, βTrCP/GSTSkp1 was incubated with thrombin ((10units/mg protein) for at least 16 hours at room temperature in 10mMHEPES 150mMNaCl pH7.4+2 mM CaCl2. Thrombin and GST were removed from βTrCP/Skp1 by buffer exchange through a 50 KDa MWCO vivaspin concentrator.
Protein Immobilisation Procedure for NTA Chip
Ni+ (500 μM NiCl) loaded on to surface at a flow rate of 5 μl/min for 60s. EDC/NHS (activates dextran carboxylates) loaded at a flow rate of 5 μl/min for 240s. Protein ([protein]=100 nM to 1 μM) loaded at a flow rate of 10 μl/min for 180s. Strip solution (350 μM EDTA/1M NaCl) added at flow rate of 10 μl/min for 30s (to chelate excess Ni+ and remove non-covalently bound protein e.g. protein oligomers). Quench solution (ethanolamine) at flow rate of 5 μl/min for 240s (to deactivate surface molecules on the chip that have not crosslinked protein). The immobilisation buffer used was 10 mM HEPES pH 7.4, 150 mM NaCl,
GST Capture Procedure (for Immobilisation Via GSTSkp1)
EDC:NHS was injected at 5 μl/min for 4 min to activate surface for amine coupling (this converts carboxyl groups on the surface of the chip to succinamide esters that react with primary amines)
Anti-GST (60 μg/ml). was loaded at 10 μl/min for 4 min resulting in an increase in response units of 6730 (Biacore manual states it should result in ˜7000)
Ethanolamine was injected at 5 μl/min for 5 min to deactivate remaining unreacted esters at surface (quenching).
Injection of a low concentration of purified GST (from kit) was injected for 3 mins at 5 μl/min before running a regeneration cycle with glycine pH2.0 that disrupts the antibody-GST interaction. […]

SMILES | Biotin Pulldown Assay 10 μM [1] | Biotin Pulldown Assay 100 μM [1] | inhibition at 100 µM [2] | inhibition at 10 µM [2] | Ub Assay 10 μM [3] | Ub Assay 100 μM [3] | inhibition at 100 µM [4] | inhibition at 10 µM [4] | IC50 [5] | Kd [6]
CCOC(=O)N[C@H](CC(=O)O)C(=O)N[C@@H](CCC(=O)O)C(=O)NCC(=O)N[C@@H](Cc1cccc(F)c1)C(=O)N[C@@H](Cc1c[nH]c2ccccc12)C(=O)N[C@@H](CCC(=O)O)C(N)=O [UBP023, EtO(CO)-dEGF(3F)WE-NH2] (Ethoxycarbonyl-[dD]EG[Phe(3-F)]WE-NH2) | reduces/ | inhibits | 12% | 0% | inhibits/ | inhibits | 4% | 4% | 0.045 ± 0.005 µM | 0.034 ± 0.017 µM
NC(=O)[C@H](CCC(=O)O)NC(=O)[C@H](Cc1ccc([N+](=O)[O-])cc1)NC(=O)[C@H](Cc1ccc(O)cc1)NC(=O)CNC(=O)[C@H](CCC(=O)O)NC(=O)CCC(=O)O [UBP013, Suc-EGYF(4NO2)E-NH2] (Suc-EGY[Phe(4-NO2)]E-NH2) | no effect/ | inhibits | 0% | 0% | no effect/ | inhibits | 31% | 11% | 2.07 ± 0.346 µM | 17.7 ± 5.2 µM
NC(=O)CC[C@H](NC(=O)CCC(=O)O)C(=O)NCC(=O)N[C@@H](Cc1cccc(F)c1)C(=O)N[C@@H](Cc1ccc([N+](=O)[O-])cc1)C(=O)N[C@@H](CCC(=O)O)C(N)=O [UBP012, Suc-QGF(3F)F(4NO2)E-NH2] | no effect/ | reduces | 0% | 0% | no effect/ | inhibits | 0% | 0% | 2.56 ± 0.374 µM | 5.49 ± 2.27 µM
